Article PMC10539439 (Pharmacological Reports, 2023)
“And” between values parts separate entries of the source, which are not always exact repeats. Equal entries are not always repeated. Where two headings read alike, the source gives them in different places.

Legend:
[1] = biological target: T1, α2A-adrenoceptor (Homo sapiens, UniProt P08913); test: Intrinsic activity, Tango beta-lactamase reporter assay; format: cell-based
T1 sequence (P08913 1-465): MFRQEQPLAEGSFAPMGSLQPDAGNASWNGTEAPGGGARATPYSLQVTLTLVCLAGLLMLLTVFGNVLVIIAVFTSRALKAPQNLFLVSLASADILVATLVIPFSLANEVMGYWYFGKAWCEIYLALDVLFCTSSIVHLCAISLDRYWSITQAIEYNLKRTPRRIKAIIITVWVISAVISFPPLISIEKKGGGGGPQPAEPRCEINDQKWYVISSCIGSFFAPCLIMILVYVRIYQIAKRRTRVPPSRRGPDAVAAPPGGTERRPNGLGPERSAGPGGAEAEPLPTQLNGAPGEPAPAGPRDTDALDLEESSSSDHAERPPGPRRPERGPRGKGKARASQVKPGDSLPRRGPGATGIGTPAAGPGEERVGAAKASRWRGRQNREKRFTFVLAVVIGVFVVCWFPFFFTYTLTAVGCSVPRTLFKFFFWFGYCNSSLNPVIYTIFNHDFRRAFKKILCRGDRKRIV
Experimental: The intrinsic activity at α2A-adrenoceptor was assessed by the Tango assay technology that uses a mammalian-optimized beta-lactamase (bla) reporter gene combined with an FRET-enabled substrate to provide reliable and sensitive detection in cells. Cells are loaded with an engineered fluorescent substrate containing two fluorophores, coumarin, and fluorescein. In the absence of bla expression, the substrate molecule remains intact. In this state, excitation of the coumarin results in a transfer of fluorescence resonance energy to the fluorescein moiety and emission of green fluorescent light. However, in the presence of bla expression, the substrate is cleaved, separating the fluorophores and disrupting energy transfer. Excitation of the coumarin in the presence of bla enzyme activity results in a blue fluorescence signal.
Intrinsic activity assay was performed according to the manufacturer of the assay kit (Invitrogen, Life Technologies). Cells were harvested and resuspended in an assay medium at a density of 312,500 cells/ml. 32 μL per well of cell suspension was added to the test compound wells, the unstimulated control wells, and the stimulated control wells, and incubated for 16–24 h. To perform an agonist assay, 8 μL of 5 × of agonist in the assay medium was added to the cells. […] Then, the agonist and antagonist plates were incubated in a humidified incubator at 37 °C/5% CO2 for 5 h. After the incubation, 8 μL of LiveBLAzer™-FRET B/G substrate mixture (CCF4-AM) was loaded into cells in the absence of direct strong lighting, covered, and incubated at room temperature for 2 h.

[2] = Pharmacokinetics in plasma after ip administration; format: in vivo, rat; conditions: for concentration at 5 min / concentration at 15 min / concentration at 30 min / concentration at 60 min / concentration at 120 min / concentration at 240 min / CL/F / Tmax / Vd/F / half-life: male, Wistar, plasma; for concentration at 5 min / concentration at 15 min / concentration at 30 min / concentration at 60 min / concentration at 120 min / concentration at 240 min / CL/F / Tmax / Vd/F / half-life / volume of distribution: rat; for concentration at 5 min / concentration at 15 min / concentration at 30 min / concentration at 60 min / concentration at 120 min / concentration at 240 min: intraperitoneal, mean; for concentration at 5 min: 5 min after administration; for concentration at 15 min: 15 min after administration; for concentration at 30 min: 30 min after administration; for concentration at 60 min: 60 min after administration; for concentration at 120 min: 120 min after administration; for concentration at 240 min: 240 min after administration; for CL/F / Tmax / Vd/F / half-life / t0.5 terminal half-life / volume of distribution: ip; for half-life / t0.5 terminal half-life: rat plasma; for half-life / t0.5 terminal half-life / volume of distribution: Guanabenz 0.3 mg/kg, 4-OH-Guanabenz 0.4 mg/kg; for half-life: read-out: t0.5 terminal half-life
Experimental: For the pharmacokinetic study, a group of 56 adult male rats (Wistar, 220–250 g, […]) were used in the experiment. Animals were purchased from the Animal House of the Faculty of Pharmacy of Jagiellonian University Medical College, Krakow, Poland. During the habituation period, the groups of 4 rats were kept in a plastic cage at a controlled room temperature (22 ± 2 ℃), humidity (55 ± 10%), full-spectrum cold white light (350–400 lx), in 12 h light/dark cycles (the lights on at 7:00 am, and off at 19:00 pm), and had free access to standard laboratory pellet and tap water. […] These were then given through an intraperitoneally injections (ip) at a dose of 0.3 mg/kg and 0.4 mg/kg, respectively. Blood samples were collected at 0 min (predose), 5 min, 15 min, 30 min, 60 min, 120 min, and 240 min after compound administration. Blood and brain samples were collected under general anesthesia induced by ip injections of 50 mg/kg ketamine plus 8 mg/kg xylazine. Blood samples were taken in heparinized tubes and immediately centrifuged at 3500 rpm for 10 min, and plasma was collected. Brain and plasma samples were immediately frozen at – 80 ℃ for LC/MS/MS analysis. All experimental procedures were carried out according to EU Directive 2010/63/EU and approved by the I Local Ethics Committee for Animal Experiments of the Jagiellonian University in Krakow, Poland (No. 94/2016).
The pharmacokinetic parameters were calculated using a non-compartmental approach from the average concentration values, using Phoenix WinNonlin software (Certara, Princeton, NJ 08540 USA). The first-order elimination rate constant (λz) was calculated by linear regression of time versus log concentration. Next, the area under the mean plasma and the concentration in the brain versus the time curve (AUC0→t) were estimated using the log-linear trapezoidal rule (Eq. 1), where Cn is the concentration of the last sampling of each compound1 AUC0→t=∑i=1n(Ci+Ci+1)/2·ti+1-ti+Cn/λz.
The area under the first-moment curve (AUMC0→t) was estimated by calculating of the total area under the first-moment curve using Eq. 2, where tn is the time of last sampling2 AUMC0→t=∑i=1n(ti·Ci+ti+1·Ci+1)/2·ti+1-ti+(tn·Cn)/λz+Cn/λz2.
Mean residence time (MRT, Eq. 3) was calculated as3 MRT=AUMC0→t/AUC0→t.
Total clearance (ClT, Eq. 4) was calculated as4 C1T=F·Di.p./AUC0→t.
The quantification of compounds in plasma and brain samples was performed using the Sciex API 3200 triple quadrupole mass spectrometer (Concord, Ontario, Canada) equipped with an electrospray (ESI) ionization interface. This instrument was coupled to an Elite LaChrom (Hitachi, USA) HPLC system. Data acquisition and processing were performed using Sciex Analyst 1.5.2 data collection and integration software. After preparation, the samples were injected (20 µL) onto XBridge C18 (2.1 mm × 30 mm, 3.5 μm, Waters, Milford, Massachusetts, USA) analytical column. The mobile phase consisted of 0.1% formic acid in acetonitrile (A) and 0.1% formic acid in water (B) was delivered in a gradient elution starting with 90% of eluent B, increasing for 2 min to 90% of eluent A, maintained for 3 min, and then returned for 5 min to 90% of eluent B, and maintained 90% of eluent B during 5 min at a flow rate of 300 µL/min. The total analysis time was 10 min. […] The ion spray source settings were as follows: spray voltage: 5.5 kV, heater temperature: 400 °C, curtain gas: 10 psi, source gas 1: 20 psi, and source gas 2: 20 psi.
Further dilutions were performed using the same solvent to prepare working standard solutions of the analyte at the following concentrations: 0.025, 0.05, 0.1, 0.25, 0.5, 1.0, 2.5, 5.0, 10, 25, and 50 µg/mL for calibration curve samples (CC) and 0.025, 0.075, 2.2, and 4.5 µg/mL for quality control samples (QC). […]

[3] = ADRAA2A, agonist, concentration 1e-8
[4] = ADRAA2A, agonist, concentration 1e-7
[5] = ADRAA2A, agonist, concentration 1e-6

| SMILES | Intrinsic activity at α2A-adrenoceptors (in words) [1] | % of max response [1, 3] | % of max response [1, 4] | % of max response [1, 5] | concentration at 5 min [2] | concentration at 15 min [2] | concentration at 30 min [2] | concentration at 60 min [2] | concentration at 120 min [2] | concentration at 240 min [2] | CL/F [2] | Tmax [2] | Vd/F [2] | half-life [2] | t0.5 terminal half-life [2] | volume of distribution [2] | also measured |
| --- | --- | --- | --- | --- | --- | --- | --- | --- | --- | --- | --- | --- | --- | --- | --- | --- | --- |
| Cl.N=C(N)NN=Cc1c(Cl)cc(O)cc1Cl [4-OH-Guanabenz, 2-[(2,6-Dichloro-4-hydroxyphenyl)methylene]hydrazinecarboximidamide Hydrochloride] | Partial agonist | -0.7437% and -0.7189% and -0.7313% and -0.7282% | 2.887% and 2.799% and 3.482% | 33.4463% and 31.1405% and 34.9698% | 54.3 ng/mL | 101 ng/mL | 20.2 ng/mL | 41.9 ng/mL | 8.65 ng/mL | 6.52 ng/mL | 17.7 mL/min/kg | 15 min | 1.75 L/kg | ~69 min | 68.6 min | 1.7 L/kg | % of max response ([1]; ADRAA2A, agonist, concentration 1e-5): 37.4215% and 35.9932% and 36.5487%; EC50 ([1]; agonist assay): 316 nM; activity relative to full agonist brimonidine ([1]; agonist assay, maximal activity reached): 30%; Emax ([1]; read-out: % of max response, ADRAA2A, agonist, concentration 1e-7): 2.71%; Emax ([1]; read-out: % of max response, ADRAA2A, agonist, concentration 1e-6): 28.8%; Emax ([1]; read-out: % of max response, ADRAA2A, agonist, concentration 1e-5): 34.6% |
| N=C(N)N/N=C/c1c(Cl)cccc1Cl [Guanabenz] | Full agonist | 28.3106% and 18.1657% and 31.6251% | 69.7622% and 66.4917% and 70.9692% | 80.6636% and 82.7247% and 76.4282% | 10.2 ng/mL | 91.2 ng/mL | 95.1 ng/mL | 14.2 ng/mL | 26.1 ng/mL | 8.53 ng/mL | 13.5 mL/min/kg | 30 min | 1.61 L/kg | ~83 min | 82.5 min | 1.6 L/kg | % of max response ([1]; ADRAA2A, agonist, concentration 1e-11): -0.6454% and -0.8183% and -1.252% and -0.7319%; % of max response ([1]; ADRAA2A, agonist, concentration 1e-10): -1.12% and -1.114% and -1.036% and -1.117%; % of max response ([1]; ADRAA2A, agonist, concentration 1e-9): 0.5496% and 0.2076% and -0.728% and 0.3786%; Emax ([1]; ADRAA2A, agonist, concentration 1e-8, read-out: % of max response): 34.9%; Emax ([1]; ADRAA2A, agonist, concentration 1e-7, read-out: % of max response): 72.2%; Emax ([1]; ADRAA2A, agonist, concentration 1e-6, read-out: % of max response): 72.2% |
